Measurements taken from ChEMBL document CHEMBL4602640, “Licochalcone A suppresses the proliferation of sarcoma HT-1080 cells, as a selective R132C mutant IDH1 inhibitor” (Bioorg Med Chem Lett, 2020).
Calls of active or inactive are those of the source. No cut-off for these calls is given here.

Tests used:
[1] = biological target: T1, Isocitrate dehydrogenase [NADP] cytoplasmic (Homo sapiens, UniProt O75874); experiment: Inhibition of IDH1 (unknown origin) at 30 uM by enzymatic assay
[2] = test system: Isocitrate dehydrogenase [NADP] cytoplasmic (Homo sapiens), O75874 [R132C]; experiment: Inhibition of IDH1 R132C mutant (unknown origin) at 30 uM by enzymatic assay
[3] = species: Homo sapiens; experiment: Ratio of inhibition of IDH1 R132C mutant (unknown origin) at 30 uM to inhibition of IDH1 (unknown origin) at 30 uM by enzymatic assay
[4] = biological target: T1, Isocitrate dehydrogenase [NADP] cytoplasmic; experiment: Binding affinity to IDH1 (unknown origin) by surface plasmon resonance assay
[5] = biological target: T2, Isocitrate dehydrogenase [NADP] cytoplasmic (Homo sapiens, UniProt O75874, R132C); experiment: Binding affinity to IDH1 R132C mutant (unknown origin) by surface plasmon resonance assay
[6] = biological target: T3, Isocitrate dehydrogenase [NADP] cytoplasmic (Homo sapiens, UniProt O75874, R132H); experiment: Binding affinity to IDH1 R132H mutant (unknown origin) by surface plasmon resonance assay
[7] = test system: Isocitrate dehydrogenase [NADP] cytoplasmic (Homo sapiens), O75874 [R132C]; experiment: Binding affinity to IDH1 R132C mutant (unknown origin) by mass spectrometry
[8] = test system: Isocitrate dehydrogenase [NADP] cytoplasmic (Homo sapiens), O75874 [R132H]; experiment: Binding affinity to IDH1 R132H mutant (unknown origin) by mass spectrometry
[9] = biological target: T1, Isocitrate dehydrogenase [NADP] cytoplasmic; experiment: Inhibition of IDH1 (unknown origin) by enzymatic assay
[10] = biological target: T2, Isocitrate dehydrogenase [NADP] cytoplasmic; experiment: Inhibition of IDH1 R132C mutant (unknown origin) by enzymatic assay
[11] = biological target: T3, Isocitrate dehydrogenase [NADP] cytoplasmic; experiment: Inhibition of IDH1 R132H mutant (unknown origin) by enzymatic assay
[12] = test system: HT-1080; experiment: Antiproliferative activity against human HT1080 cells harboring IDH1-R132C mutation incubated for 48 hrs; assay type: functional, cell-based
[13] = Cytotoxicity against human RCTEC incubated for 48 hrs
[14] = test system: U-87 MG; experiment: Cytotoxicity against human U87MG cells harboring wild type IDH1 incubated for 48 hrs; assay type: functional, cell-based, U-87MG ATCC
[15] = test system: HT-1080; experiment: Reduction in 2 HG level in human HT1080 cells harboring IDH1-R132C mutation incubated for 48 hrs by LC-MS analysis relative to control; assay type: functional
[16] = test system: HT-1080; experiment: Reduction in CDK1 mRNA level in human HT1080 cells incubated for 48 hrs by qRT-PCR analysis; assay type: functional, cell-based
[17] = test system: HT-1080; experiment: Reduction in CDK2 mRNA level in human HT1080 cells incubated for 48 hrs by qRT-PCR analysis; assay type: functional, cell-based
[18] = test system: HT-1080; experiment: Reduction in CDK1 protein expression in human HT1080 cells incubated for 48 hrs by Western blot analysis; assay type: functional, cell-based
[19] = test system: HT-1080; experiment: Reduction in CDK2 protein expression in human HT1080 cells incubated for 48 hrs by Western blot analysis; assay type: functional, cell-based
[20] = test system: HT-1080; experiment: Reduction in ACO1 […] expression in human HT1080 cells by RNA-Seq data analysis; assay type: functional, cell-based
[21] = test system: HT-1080; experiment: Reduction in PDHB […] expression in human HT1080 cells by RNA-Seq data analysis; assay type: functional, cell-based
[22] = test system: HT-1080; experiment: Induction of cell cycle arrest in human HT1080 cells assessed accumulation at G1 phase at 5 uM incubated for 24 hrs by flow cytometric analysis (reference value: 31.67%); assay type: functional
[23] = test system: HT-1080; experiment: Induction of cell cycle arrest in human HT1080 cells assessed accumulation at S phase at 5 uM incubated for 24 hrs by flow cytometric analysis (reference value: 52.69%); assay type: functional
[24] = test system: HT-1080; experiment: Induction of cell cycle arrest in human HT1080 cells assessed accumulation at G2 phase at 5 uM incubated for 24 hrs by flow cytometric analysis (reference value: 15.64%); assay type: functional
[25] = test system: HT-1080; experiment: Induction of cell cycle arrest in human HT1080 cells assessed accumulation at G1 phase at 10 uM incubated for 24 hrs by flow cytometric analysis (reference value: 31.67%); assay type: functional
[26] = test system: HT-1080; experiment: Induction of cell cycle arrest in human HT1080 cells assessed accumulation at S phase at 10 uM incubated for 24 hrs by flow cytometric analysis (reference value: 52.69%); assay type: functional
[27] = test system: HT-1080; experiment: Induction of cell cycle arrest in human HT1080 cells assessed accumulation at G2 phase at 10 uM incubated for 24 hrs by flow cytometric analysis (reference value: 15.64%); assay type: functional
[28] = test system: HT-1080; experiment: Induction of cell cycle arrest in human HT1080 cells assessed accumulation at G1 phase at 20 uM incubated for 24 hrs by flow cytometric analysis (reference value: 31.67%); assay type: functional
[29] = test system: HT-1080; experiment: Induction of cell cycle arrest in human HT1080 cells assessed accumulation at S phase at 20 uM incubated for 24 hrs by flow cytometric analysis (reference value: 52.69%); assay type: functional
[30] = test system: HT-1080; experiment: Induction of cell cycle arrest in human HT1080 cells assessed accumulation at G2 phase at 20 uM incubated for 24 hrs by flow cytometric analysis (reference value: 15.64%); assay type: functional
[31] = test system: HT-1080; experiment: Induction of apoptosis in human HT1080 cells assessed as viable cells at 5 uM incubated for 48 hrs by flow cytometric analysis (reference value: 95.9%); assay type: functional; conditions: HT-1080, 48 h, read-out: Activity
[32] = test system: HT-1080; experiment: Induction of apoptosis in human HT1080 cells assessed as early apoptotic cells at 5 uM incubated for 48 hrs by flow cytometric analysis (reference value: 0.63%); assay type: functional
[33] = test system: HT-1080; experiment: Induction of apoptosis in human HT1080 cells assessed as late apoptotic cells at 5 uM incubated for 48 hrs by flow cytometric analysis (reference value: 2.48%); assay type: functional
[34] = test system: HT-1080; experiment: Induction of apoptosis in human HT1080 cells assessed as necrotic cells at 5 uM incubated for 48 hrs by flow cytometric analysis (reference value: 0.95%); assay type: functional
[35] = test system: HT-1080; experiment: Induction of apoptosis in human HT1080 cells assessed as viable cells at 10 uM incubated for 48 hrs by flow cytometric analysis (reference value: 95.9%); assay type: functional; conditions: HT-1080, 48 h, read-out: Activity
[36] = test system: HT-1080; experiment: Induction of apoptosis in human HT1080 cells assessed as early apoptotic cells at 10 uM incubated for 48 hrs by flow cytometric analysis (reference value: 0.63%); assay type: functional
[37] = test system: HT-1080; experiment: Induction of apoptosis in human HT1080 cells assessed as late apoptotic cells at 10 uM incubated for 48 hrs by flow cytometric analysis (reference value: 2.48%); assay type: functional
[38] = test system: HT-1080; experiment: Induction of apoptosis in human HT1080 cells assessed as necrotic cells at 10 uM incubated for 48 hrs by flow cytometric analysis (reference value: 0.95%); assay type: functional
[39] = test system: HT-1080; experiment: Induction of apoptosis in human HT1080 cells assessed as viable cells at 20 uM incubated for 48 hrs by flow cytometric analysis (reference value: 95.9%); assay type: functional; conditions: HT-1080, 48 h, read-out: Activity
[40] = test system: HT-1080; experiment: Induction of apoptosis in human HT1080 cells assessed as early apoptotic cells at 20 uM incubated for 48 hrs by flow cytometric analysis (reference value: 0.63%); assay type: functional
[41] = test system: HT-1080; experiment: Induction of apoptosis in human HT1080 cells assessed as late apoptotic cells at 20 uM incubated for 48 hrs by flow cytometric analysis (reference value: 2.48%); assay type: functional
[42] = test system: HT-1080; experiment: Induction of apoptosis in human HT1080 cells assessed as necrotic cells at 20 uM incubated for 48 hrs by flow cytometric analysis (reference value: 0.95%); assay type: functional
[43] = test system: HT-1080; experiment: Induction of cell cycle arrest in human HT1080 cells assessed accumulation at G2 phase incubated for 24 hrs by flow cytometric analysis; assay type: functional, cell-based

T1 sequence (O75874 whole entry): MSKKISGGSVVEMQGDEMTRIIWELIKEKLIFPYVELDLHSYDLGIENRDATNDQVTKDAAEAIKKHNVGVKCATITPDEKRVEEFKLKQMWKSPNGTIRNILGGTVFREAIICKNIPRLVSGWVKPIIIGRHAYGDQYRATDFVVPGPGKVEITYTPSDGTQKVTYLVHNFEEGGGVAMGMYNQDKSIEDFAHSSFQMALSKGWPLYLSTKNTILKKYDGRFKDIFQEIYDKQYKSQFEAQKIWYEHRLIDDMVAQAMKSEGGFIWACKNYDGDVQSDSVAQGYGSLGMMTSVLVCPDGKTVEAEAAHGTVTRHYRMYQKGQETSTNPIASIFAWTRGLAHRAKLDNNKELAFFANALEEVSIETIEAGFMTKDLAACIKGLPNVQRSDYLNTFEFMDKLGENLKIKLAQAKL
Chain of Isocitrate dehydrogenase [NADP] cytoplasmic (Homo sapiens), O75874 [R132C] (O75874 whole entry R132C): as the sequence (O75874 whole entry) above, with R132C counted along it
T3 sequence (O75874 2-414 R132H limits assumed): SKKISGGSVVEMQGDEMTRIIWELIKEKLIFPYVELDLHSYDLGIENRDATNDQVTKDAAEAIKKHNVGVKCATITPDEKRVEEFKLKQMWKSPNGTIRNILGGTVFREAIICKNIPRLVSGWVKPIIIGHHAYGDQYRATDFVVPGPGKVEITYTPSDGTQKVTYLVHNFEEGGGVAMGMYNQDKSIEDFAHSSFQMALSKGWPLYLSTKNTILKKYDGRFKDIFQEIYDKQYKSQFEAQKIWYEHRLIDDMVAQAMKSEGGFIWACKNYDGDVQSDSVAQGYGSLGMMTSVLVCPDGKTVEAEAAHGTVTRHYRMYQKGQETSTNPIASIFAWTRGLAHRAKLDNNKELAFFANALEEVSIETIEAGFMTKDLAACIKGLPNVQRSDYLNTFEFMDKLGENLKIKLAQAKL
T2 sequence (O75874 2-414 R132C limits assumed): as the sequence (O75874 2-414 R132H limits assumed) above, with H131C counted along it
Chain of Isocitrate dehydrogenase [NADP] cytoplasmic (Homo sapiens), O75874 [R132H] (O75874 whole entry R132H): as the sequence (O75874 whole entry) above, with R132H counted along it

SMILES: C=CC(C)(C)c1cc(/C=C/C(=O)c2ccc(O)cc2)c(OC)cc1O [LICOAGROCHACONE A]
- inhibition [1]: inactive
- inhibition [2]: Active
- Ratio [3]: 3
- Kd [4]: > 50 µM
- Kd [5]: 2.81 µM
- Kd [6]: 12.8 µM
- Activity [7]: Active
- Activity [8]: inactive
- IC50 [9]: > 100 µM
- IC50 [10]: 5.18 µM
- IC50 [11]: 76.9 µM
- Activity [12]: Dose-dependent effect
- IC50 ([12]; HT-1080, 48 h): 10.8 µM
- IC50 [13]: > 50 µM
- IC50 [14]: > 50 µM
- inhibition [15]: Dose-dependent effect
- inhibition (INH) [15]: >50%
- inhibition [16]: Dose-dependent effect
- inhibition [17]: Dose-dependent effect
- inhibition [18]: Dose-dependent effect
- inhibition [19]: Dose-dependent effect
- inhibition [20]: Dose-dependent effect
- inhibition [21]: Dose-dependent effect
- Activity [22]: 35.93%
- Activity [23]: 43.13%
- Activity [24]: 20.94%
- Activity [25]: 21.99%
- Activity [26]: 45.83%
- Activity [27]: 24.18%
- Activity [28]: 24.76%
- Activity [29]: 41.29%
- Activity [30]: 33.95%
- viability at 5 µM [31]: 80.5%
- Activity [32]: 1.26%
- Activity [33]: 15.2%
- Activity [34]: 3.13%
- viability at 10 µM [35]: 64.1%
- Activity [36]: 4.97%
- Activity [37]: 26.6%
- Activity [38]: 4.4%
- viability at 20 µM [39]: 42%
- Activity [40]: 0.82%
- Activity [41]: 54.4%
- Activity [42]: 2.79%
- Activity [43]: Dose-dependent effect
